System: T1, human plasma alpha 1-acid glycoprotein (hAGP)
T1 construct: gene ORM1; native, purified from human plasma (commercial, Sigma-Aldrich); secreted glycoprotein, signal peptide removed; plasma preparation is normally a mix of ORM1 and ORM2 products
Test: luminescence intensity, Michaelis-Menten fit
Format: biochemical
Details: 50 mM Gly-NaOH pH 9.5, room temperature, 25 μg/mL hAGP; hAGP treated as a luciferase

- Km: 0.46 µM
Structure (SMILES): CC[C@H](C)c1nc2c(CCCNC(=N)N)[nH]c(-c3c[nH]c4ccccc34)cn-2c1=O [Cypridina luciferin]
